The values that follow come from PubChem BioAssay AID687029 (Broad Institute, 2013).

The experiment concerns RMG-1 viability, CellTiterGlo ATP luminescence, 96 h. In words: cytotoxicity in PAX8-dependent RMG-1 cells, dose response, cell-based, cherry-pick (AID 687029).

The term AC50 denotes the concentration at which the activity in the assay is half-maximal.

`Cc1ccc(S(=O)(=O)CC(CN2CCCCC2)N2CCCCC2)cc1` (centres undefined): the half-maximal activity concentration (AC50) was under 260 nM. Consider `O=C1c2cccc3cc([N+](=O)[O-])cc(c23)C(=O)N1CCN1CCCC1`, for which the AC50 was under 260 nM. As to `COc1ccc(Cn2cc3c(-c4ccc(F)cc4)nnc-3c3cc(OC)c(OC)cc32)cc1`, the AC50 is 21300 nM. With `C[C@H](CO)N1C[C@H](C)[C@H](CN(C)S(=O)(=O)c2ccc(Cl)cc2)OCCCC[C@H](C)Oc2ccc(NS(=O)(=O)c3ccc(F)cc3)cc2C1=O`, the half-maximal activity concentration (AC50) was under 260 nM. As to `Cn1c(SCC(=O)c2ccccc2)nnc1-c1ccccn1`, the AC50 was 1420 nM.

With `C[C@]12CCC3C(CCC4=CC(O)CC[C@@]43/C=N/O)C1(O)CCC2C1=CC(=O)OC1` (some centres undefined), the AC50 was under 260 nM. With `C[C@@H]1CN([C@@H](C)CO)C(=O)Cc2cc(NS(=O)(=O)c3ccc(Cl)cc3)ccc2O[C@H]1CN(C)Cc1ccc(Oc2ccccc2)cc1`, the AC50 was under 260 nM. On to `O=C(Nc1ccc(OCC(F)(F)C(F)F)c(C(F)(F)F)c1)c1ccccc1O`, for which the AC50 was under 260 nM.

On to `COc1cc(OC)c2c(-c3cccc(-c4ccc(OC)c(F)c4)c3)cc(=O)oc2c1`, for which the AC50 is 11400 nM. On to `CCCNC(=O)Nc1ccc2c(c1)OC[C@H](C)N(Cc1ccc(-c3ccccn3)cc1)C[C@@H](C)[C@@H](OC)CN(C)C2=O`, for which the AC50 is under 260 nM. Consider `Cc1ccc(C(=O)N/C(=C\c2ccc(-c3ccc(Br)cc3)o2)C(=O)NCCCN(C)C)cc1`, for which the AC50 was 12500 nM. Consider `c1cc2c(cc1C1=NNC(=NC3CC3)SC1)OCCO2`, for which the AC50 was under 260 nM. Turning to `O=C(Nc1cccc(-c2ccc(N3CCCCC3)nn2)c1)C(F)(F)F`, the AC50 is under 260 nM. `C=C(C(=O)c1ccccc1)C(C(=C)C(=O)c1ccccc1)c1ccc(OC)cc1`: the AC50 is under 260 nM.

For `COc1cc(-c2cnc3c(NC=O)cc(-c4ccccc4)cn23)cc(OC)c1OC`, the AC50 is under 260 nM. Regarding `CC(C)CCCCCCCCCCCCC(=O)NCC(=O)NC1C(C)OC(Nc2ncnc3nc[nH]c23)C(O)C1O` (centres undefined), the AC50 was 275 nM. As for `Cc1nnc(N/N=C/c2cc(C)n(-c3ccc(F)cc3)c2C)n1N`, the figure is 8360 nM; as for `COc1cccc(S(=O)(=O)NCC(=O)Nc2ccc(C(C)(C)C)cc2)c1`, under 260 nM; as for `CC(C)(C)[C@H](N)C(=O)N[C@H]1CCC2C3CC=C4C[C@@H](O)CC[C@]4(C)C3CC[C@@]21C` (some centres undefined), under 260 nM. Turning to `CCCCN=C[C@]12CCC(O)CC1(O)CCC1[C@@H]2CC[C@]2(C)[C@H](C3C=CC(=O)O3)CCC12O` (some centres undefined), the AC50 is under 260 nM. As for `CCC(=O)NC(c1ccc(C)cc1)c1ccc2cccnc2c1O` (centres undefined), the figure is under 260 nM. For the molecule `COc1cc(C2C3=C(COC3=O)Oc3cc4c(cc32)OCO4)cc(OC)c1O` (centres undefined), the half-maximal activity concentration (AC50) is under 260 nM. For `Cn1nnnc1Sc1ncnc2scc(-c3cccc(S(C)(=O)=O)c3)c12`, the half-maximal activity concentration (AC50) is 10200 nM. As for `C[C@@H]1CCCCO[C@@H](CN(C)C(=O)Nc2cccc3ccccc23)[C@H](C)CN([C@H](C)CO)C(=O)c2cc(NS(=O)(=O)c3ccc(F)cc3)ccc2O1`, the AC50 is under 260 nM. Consider `C[C@@H]1CCCCO[C@H](CN(C)Cc2ccc(C(F)(F)F)cc2)[C@H](C)CN([C@H](C)CO)C(=O)c2cc(NS(=O)(=O)c3cccs3)ccc2O1`, for which the half-maximal activity concentration (AC50) is under 260 nM. Consider `O=C(CSc1ncccc1-c1nc2ccccc2[nH]1)N1CCc2ccccc21`, for which the concentration at half-maximal activity (AC50) was under 260 nM. As for `OCCCNc1nccc(-c2cc(Nc3cccc(Cl)c3)ncn2)n1`, the figure is under 260 nM; as for `Cc1ccc(S(=O)(=O)Nc2ccc3c(c2)CC(=O)N([C@H](C)CO)C[C@H](C)[C@H](CN(C)S(=O)(=O)c2ccc(F)cc2)O3)cc1`, 4300 nM. In the case of `S=c1sc2c(Cl)ncnc2n1-c1ccccc1`, the half-maximal activity concentration (AC50) is under 260 nM. The figure for `O=[N+]([O-])c1cccnc1S(=O)(=O)c1ccccc1` is under 260 nM; for `C[C@@H]1CN([C@H](C)CO)C(=O)c2cc(NS(=O)(=O)c3ccc(Cl)cc3)ccc2O[C@@H](C)CCCCO[C@@H]1CN(C)Cc1ccccc1` it is under 260 nM. Consider `CSC(=Nc1ccccc1)N=C(SCc1ccccc1)N(C)C`, for which the AC50 is under 260 nM. As for `CN1c2ccccc2N(C)C1(C)c1ccccc1`, the figure is under 260 nM; as for `Cc1cc(CN(C)C(=O)c2cc(COc3ccc4ncccc4c3)on2)on1`, under 260 nM; as for `COc1ccc(CCNc2nnc(Sc3nnnn3-c3ccccc3)s2)cc1OC`, 13000 nM.

Consider `Cc1ccc2c(c1)c1c3n2CCN(CC(N)=O)C3CCC1` (centres undefined), for which the AC50 was 12300 nM. As for `C[C@H]1CCCCO[C@H](CN(C)Cc2ccc(C(F)(F)F)cc2)[C@@H](C)CN([C@@H](C)CO)C(=O)c2cc(NS(=O)(=O)c3ccc(Cl)cc3)ccc2O1`, the figure is under 260 nM. In the case of `COc1cccc(-c2ccc([C@H]3[C@@H](CO)N(C(=O)Cc4ccccc4)[C@H]3C#N)cc2)c1`, the half-maximal activity concentration (AC50) is under 260 nM. As for `C[C@@H]1O[C@@H](O[C@@H]2C=C3CC[C@@H]4C(CC[C@]5(C)[C@@H](c6ccc(=O)oc6)CC[C@]45O)[C@@]3(C)CC2)[C@H](O)[C@H](O)[C@H]1O` (some centres undefined), the figure is under 260 nM.

In the case of `O=C(C(=O)N(Cc1ccccc1)Cc1ccccc1)c1c(-c2ccccc2)[nH]c2ccccc12`, the concentration at half-maximal activity (AC50) is under 260 nM. In the case of `O=C(CN1C(=O)c2ccccc2S1(=O)=O)c1ccc2c(c1)OCCO2`, the AC50 was under 260 nM. As to `Cc1cc(Nc2ccc3c(c2)OCCO3)c2ccccc2n1`, the half-maximal activity concentration (AC50) is under 260 nM. As for `C(=Cc1cnc2ccccc2n1)c1ccc2c(c1)OCO2`, the concentration at half-maximal activity (AC50) is 12900 nM. Consider `O=C(Nc1cccc(NC(=O)c2cccs2)c1)c1ccc([N+](=O)[O-])o1`, for which the AC50 is 11100 nM.

For the molecule `Brc1ccc(-n2cc(-c3ccccc3)c3c(NN4CCOCC4)ncnc32)cc1`, the concentration at half-maximal activity (AC50) is under 260 nM. Regarding `COc1cc(OC)cc(C(=O)NCC(=O)OCC(=O)c2cc(C)n(Cc3ccco3)c2C)c1`, the AC50 was under 260 nM.

Turning to `CCC(c1nnnn1Cc1ccccc1)N1CCC(n2c(=O)[nH]c3ccccc32)CC1` (centres undefined), the AC50 was under 260 nM. With `CCN(CC(=O)Nc1c(F)cccc1F)C(=O)c1cc(S(=O)(=O)N(C)C)ccc1N1CCCC1`, the concentration at half-maximal activity (AC50) is under 260 nM.

`N#Cc1ccc(-c2ccc(C3[C@@H]4CN(C(=O)C5CC5)C[C@H]3N4)cc2)cc1` (some centres undefined): the half-maximal activity concentration (AC50) was under 260 nM.

`COc1ccc(C(=O)NC(=S)NNC(=O)c2c(-c3ccccc3)noc2C)cc1`: the AC50 is under 260 nM.

Turning to `CCOC(=O)Nc1ccc2c(c1)N(C(=O)CCN(CC)CC)c1ccccc1S2=O` (centres undefined), the AC50 is under 260 nM. `C[C@]12CC[C@H]3[C@@H](CC[C@]4(O)C[C@@H](O)CC[C@]34C=O)[C@@]1(O)CC[C@@H]2C1=CC(=O)OC1`: the AC50 is under 260 nM.

Regarding `CCCC(=O)NC1=C(Cl)C(=O)c2ccccc2C1=O`, the concentration at half-maximal activity (AC50) was under 260 nM.

With `C#CCN(C[C@@H]1[C@@H](OC(=O)NCC2CCCCC2)[C@@H](OC(=O)NCC2CCCCC2)Cn2c(=O)ccc(=O)n21)S(=O)(=O)c1ccc(C)cc1`, the concentration at half-maximal activity (AC50) is under 260 nM. As for `Cc1cc(C2=NNC(=NC3CC3)SC2)c(C)n1-c1ccccc1F`, the figure is under 260 nM; as for `O=C(Nc1ccc(N2CCN(C(=O)c3ccccc3)CC2)cc1)c1ccc([N+](=O)[O-])o1`, under 260 nM.

Regarding `COc1cc(/C=N/O)ccc1OCc1ccc(C(=O)O)cc1`, the AC50 is 12800 nM.

In the case of `COc1ccc(C2=NNC(=Nc3cc(S(=O)(=O)N(C)C)ccc3C)SC2)c(OC)c1`, the AC50 is under 260 nM. Consider `C[C@@H]1CCCCO[C@H](CN(C)C(=O)C2CCCCC2)[C@@H](C)CN([C@@H](C)CO)C(=O)c2cc(NC(=O)Nc3ccc(F)cc3)ccc2O1`, for which the concentration at half-maximal activity (AC50) was under 260 nM. Regarding `O=C(NCc1cc(C(F)(F)F)ccc1Cl)c1cccc2c1C(=O)c1ccc(N3CCC(N4CCCCC4)CC3)cc1S2(=O)=O`, the AC50 is under 260 nM.

With `Cc1cc(C(C)(C)C)cc(C)c1Cn1c2[n+](c3ccc(C(F)(F)F)cc31)CCCCC2`, the half-maximal activity concentration (AC50) was under 260 nM. Consider `COc1ccc(-c2nc3c(c(SCC(=O)Nc4cccc(O)c4)n2)Cc2c(CO)cnc(C)c2O3)cc1`, for which the concentration at half-maximal activity (AC50) is 10500 nM. As to `O=C1CN(C(=O)Cn2ncc(Cl)c(Cl)c2=O)c2ccccc2N1`, the AC50 is under 260 nM. For `C[C@H](O)[C@@H]1CN2CCc3c([nH]c4ccc(-c5ccc6c(c5)OCO6)cc34)[C@@H]2C[C@@H]1N(C)C(=O)NC1CCCCC1`, the concentration at half-maximal activity (AC50) is under 260 nM. In the case of `COc1ccc(NC(=O)c2c(Nc3ccccc3)sc(C(=O)c3ccc(F)cc3)c2N)cc1`, the AC50 was under 1000 nM. On to `COc1ccccc1C(=O)Nc1nc2ccccc2[nH]1`, for which the concentration at half-maximal activity (AC50) was 12300 nM. Regarding `O=c1cc(-c2ccccc2)oc2ccc3ccccc3c12`, the AC50 is under 260 nM. As for `COCCn1c(C)cc(C2=NNC(=NC3CC3)SC2)c1C`, the AC50 was under 260 nM. As for `C=C(C)c1cccc(C(C)(C)NC(=O)N2CCN(c3ccccc3OC)CC2)c1`, the figure is under 260 nM; as for `COc1ccc(C)cc1NS(=O)(=O)c1ccc(-c2cnc(C3CC3)o2)cc1`, 376 nM; as for `CCCC1=Nc2cc(C(=O)NCCCOCC)ccc2Sc2ccccc21`, under 260 nM.

Turning to `C=C(C)c1nc(Oc2ccccc2)nc(Oc2ccccc2)n1`, the AC50 is under 260 nM. In the case of `Cc1ccc(-c2csc3ncnc(Sc4nnc(CN5CCCCCC5=O)o4)c23)cc1`, the half-maximal activity concentration (AC50) was 10800 nM. As to `Cc1cnc(NC(=O)c2ccc3c(c2)OCCO3)s1`, the AC50 is under 260 nM. For `CN(C(=O)OC(C)(C)C)c1ccc(-c2nc3ccccc3s2)cc1`, the half-maximal activity concentration (AC50) was under 260 nM. In the case of `Cc1cc(C)c2c(N)c(C(=O)Nc3ncc(C)s3)sc2n1`, the concentration at half-maximal activity (AC50) was 1010 nM. Take `O=C(Nc1ccc(Cl)c(Cl)c1)N[C@@H]1CC[C@H](CCn2cc(C3CCCCC3)nn2)O[C@H]1CO`: the concentration at half-maximal activity (AC50) is under 260 nM. `O=C(CCC(=O)c1ccccc1)NCCc1c[nH]c2ccccc12`: the AC50 was under 260 nM. Take `C[C@H](CO)N1C[C@H](C)[C@H](CN(C)Cc2ccc(C(F)(F)F)cc2)OCCCC[C@H](C)Oc2ccc(NS(=O)(=O)c3ccccc3)cc2C1=O`: the AC50 is 927 nM.

In the case of `COc1cccc(N2CCN(C(=O)c3ccc(CS(=O)c4ccccc4Cl)o3)CC2)c1` (centres undefined), the half-maximal activity concentration (AC50) is under 260 nM. The figure for `CCN(CC)S(=O)(=O)c1cc(NC(=O)Cn2ncc(Cl)c(Cl)c2=O)ccc1C` is under 260 nM; for `O=C(Nc1ccccc1)NN(C(=O)CCl)c1ccccc1` it is 12400 nM; for `C=C1C(=O)C2=CC1CCC(=O)C1(C)CCC(OC(C)=O)C(C)(C)C1CC2O` (centres undefined) it is under 260 nM. As for `COc1ccc2c(COC(=O)CNC(=O)C34CC5CC(CC(C5)C3)C4)cc(=O)oc2c1`, the concentration at half-maximal activity (AC50) is under 260 nM.
